Measured values reported in publication PMC9032233, “2-{5-[(Z,2Z)-2-Chloro-3-(4-nitrophenyl)-2-propenylidene]-4-oxo-2-thioxothiazolidin-3-yl}-3-methylbutanoic Acid as a Potential Anti-Breast Cancer Molecule” (International Journal of Molecular Sciences, 2022).
Values joined by “and” are separate entries in the source; they are usually repeats but may differ in a detail not shown here. Identical values can stand only once.

Assay: Metabolic stability with rat liver microsomes (RLMs)
Assay type: in vitro ADME
Experimental: The metabolic stability was estimated using rat liver microsomes (RLMs) obtained from Sigma-Aldrich (St. Louis, MO, USA). Les-3331 was incubated in the presence of RLMs and NADPH Regeneration System (Promega, Madison, WI, USA) in Tris-HCl buffer (pH 7.4) for 120 min. Cold ethanol was added next to stop the reaction. The reaction mixture was centrifuged. The aforementioned UPLC-MS device was used to analyze the supernatant. MS/MS ion fragment analyses were performed for Les-3331 and the main metabolite. The in silico prediction of possible Les-3331 metabolic pathways was performed by MetaSite 8.0.1. Software (Molecular Discovery Ltd., Hertfordshire, UK).

CC(C)C(C(=O)O)N1C(=O)/C(=C/C(Cl)=C/c2ccc([N+](=O)[O-])cc2)SC1=S (centres unmarked) [Les-3331, 2-{5-[(Z,2Z)-2-chloro-3-(4-nitrophenyl)-2-propenylidene]-4-oxo-2-thioxothiazolidin-3-yl}-3-methylbutanoic acid]
% of the Remaining Substrate (RLMs, 120 min incubation): 52% and 52.03%
Proposed Metabolic Pathway (main metabolite M1, RLMs 120 min): decomposition
Proposed Metabolic Pathway (metabolite M2, RLMs 120 min): decomposition and hydroxylation
Proposed Metabolic Pathway (metabolite M3, RLMs 120 min): decomposition and dehydrogenation
Proposed Metabolic Pathway (metabolite M4, RLMs 120 min): decomposition
